Here are results for 3 compounds from patent US20240408226A1, “ANTIBODY DRUG CONJUGATE INTERMEDIATE CONTAINING SN38 AND ITS PREPARATION METHOD” (priority 2021, published 2024).

Data set [1] in a line: Stability in PB (0.2 M) buffer at 37° C., quantified by LC-MS. To be noted: for Remaining fraction T/T0: 37° C. Type of data set: physicochemical. How it is done: The system was placed in a constant temperature system of 37° C. […] The system was placed in a constant temperature system of 37° C.; • 4) 40 μL of sample was respectively taken at 0 h, 2 h, 4 h, 6 h, 24 h, and 48 h, added with 120 μL of acetonitrile, and centrifuged. The supernatant was taken for quantitative determination by LC-MS. • 5) Results processing.
The concentration at T=0 h in LC-MS was used as the reference, and the data were calculated by T/T0*100%. The results are shown in Table 3 and Table 4, respectively.

In the next data set the test system is small cell lung cancer. As to conditions: small cell lung cancer in which multiple treatments had failed; cited from earlier work.
Data set [2] concerns triple-negative breast cancer. As to conditions: clinical phase II; cited from earlier work.
For data set [3], the system named is non-small cell lung cancer. As to conditions: non-small cell lung cancer after failed chemotherapy, targeting therapy and PD-1 treatment; cited from earlier work.

As for `CCc1c2c(nc3ccc(O)cc13)-c1cc3c(c(=O)n1C2)COC(=O)[C@@]3(CC)OC(=O)OCc1ccc(NC(=O)[C@@H](CCCCN)NC(=O)COCC(=O)NCCOCCOCCOCCOCCOCCOCCOCCOCCn2cc(CNC(=O)C3CCC(CN4C(=O)C=CC4=O)CC3)nn2)cc1` (stereo partly drawn) [CL2A-SN38], the decomposed in data set [1] (alkaline conditions, at 24 h) amounted to 98%; in data set [1] (neutral conditions, at 6 h), 43%; in data set [1] (neutral conditions, at 24 h), 98%; in data set [1] (pH of 6, after 48 h), 98.0%; in data set [1] (pH of 7, after 48 h) it was 98.1%; in data set [1] (pH of 8, after 48 h) it was 98.1%. Also, the “Remaining fraction T/T0” value is 1 in data set [1] (pH = 6, 0 h, 60 μg/mL); 0.7479 in data set [1] (pH = 6, 2 h, 60 μg/mL); 0.6471 in data set [1] (pH = 6, 4 h, 60 μg/mL); 0.413 in data set [1] (pH = 6, 6 h, 60 μg/mL); 0.03593 in data set [1] (pH = 6, 24 h, 60 μg/mL); 0.02024 in data set [1] (pH = 6, 48 h, 60 μg/mL). The “Remaining fraction T/T0” value in data set [1] (pH = 7, 0 h) is listed as 1; in data set [1] (pH = 7, 2 h), 0.7038; in data set [1] (pH = 7, 4 h) it was 0.5851; in data set [1] (pH = 7, 6 h), 0.5715; in data set [1] (pH = 7, 24 h), 0.02261; in data set [1] (pH = 7, 48 h), 0.01906. Further, the “Remaining fraction T/T0” value in data set [1] (pH = 8, 0 h) turned out to be 1; in data set [1] (pH = 8, 2 h), 0.6287; in data set [1] (pH = 8, 4 h) it was 0.4347; in data set [1] (pH = 8, 6 h), 0.3844; in data set [1] (pH = 8, 24 h) it was 0.02532; in data set [1] (pH = 8, 48 h), 0.01928.

As to `CCc1c2c(nc3ccc(OC(=O)N(CCOCCOC(=O)N(C)CCN(C)C)CCN(C)C(=O)OCc4ccc(NC(=O)[C@H](CCCNC(N)=O)NC(=O)[C@@H](NC(=O)CCCCCN5C(=O)C=CC5=O)C(C)C)cc4)cc13)-c1cc3c(c(=O)n1C2)COC(=O)[C@]3(O)CC` [Compound of formula (1), maleimidohexanoic acid-L-valyl-L-citrulline-p-aminobenzyl-(N-methylethyldiethoxy-N,N,N-trimethylethylenediami ne)-camptothecin], the decomposed in data set [1] (alkaline conditions, at 24 h) came to 97%; in data set [1] (neutral conditions, at 6 h), 18%; in data set [1] (neutral conditions, at 24 h) it was 75%; in data set [1] (pH of 6, after 48 h) it was 21.2%; in data set [1] (pH of 7, after 48 h) it was 87.8%; in data set [1] (pH of 8, after 48 h) it was 98.7%. Moreover, the “Remaining fraction T/T0” value in data set [1] (pH = 6, 0 h, 60 μg/mL) came out at 1; in data set [1] (pH = 6, 2 h, 60 μg/mL), 0.9886; in data set [1] (pH = 6, 4 h, 60 μg/mL) it was 0.9761; in data set [1] (pH = 6, 6 h, 60 μg/mL), 0.9208; in data set [1] (pH = 6, 24 h, 60 μg/mL), 0.8682; in data set [1] (pH = 6, 48 h, 60 μg/mL), 0.7886. The “Remaining fraction T/T0” value is given as 1 in data set [1] (pH = 7, 0 h); 0.8789 in data set [1] (pH = 7, 2 h); 0.8018 in data set [1] (pH = 7, 4 h); 0.8219 in data set [1] (pH = 7, 6 h); 0.2567 in data set [1] (pH = 7, 24 h); 0.1222 in data set [1] (pH = 7, 48 h). Also, the “Remaining fraction T/T0” value in data set [1] (pH = 8, 0 h) is listed as 1; in data set [1] (pH = 8, 2 h), 0.5641; in data set [1] (pH = 8, 4 h), 0.2841; in data set [1] (pH = 8, 6 h), 0.1234; in data set [1] (pH = 8, 24 h) it was 0.009607; in data set [1] (pH = 8, 48 h), 0.01256. Besides, the “Stability compared with CL2A-SN38” value in data set [1] (weak acidic conditions) is on record as “more stable than CL2A-SN38”; in data set [1] (weak acidic or neutral conditions), “higher stability”.

As to Sacituzumab govitecan, the “tumor shrinkage, share of patients” value with small cell lung cancer is listed as 60%; in data set [2], 69.5%. Besides, the effective rate in data set [2] was 30%. For the same compound, the control rate result in data set [3] is given as “up to 43%”.
